Data: patent publication US9260439B2, “Dihydropyrrolopyrimidine derivatives” (PFIZER INC., priority 2014, dated 2016)

Molecular target: truncated PI3Kα (p110α/iSH2 p85α) (Homo sapiens (Human), UniProt P42336)
Test: PI3KA_Act fluorescence polarization kinase assay (Ki)
Format: biochemical
Settings: 1 mM ATP
Procedure, shortened: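 Ki values result from fitting fluorescence polarization signals to the Morrison equation for tight-binding competitive inhibitors. The detector was GST-Grp1 PH domain with TAMRA-PIP3, read after a 30 min room-temperature reaction of 0.5 nM truncated PI3Kα and 30 μM PIP2 at pH 7.4 in HEPES/NaCl/MgCl2/DTT/CHAPS buffer. Compounds were tested as 12-point 3-fold dilutions from 3 μM.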

truncated PI3Kα (p110α/iSH2 p85α), sequence (P42336 whole entry, the tested form may be a part): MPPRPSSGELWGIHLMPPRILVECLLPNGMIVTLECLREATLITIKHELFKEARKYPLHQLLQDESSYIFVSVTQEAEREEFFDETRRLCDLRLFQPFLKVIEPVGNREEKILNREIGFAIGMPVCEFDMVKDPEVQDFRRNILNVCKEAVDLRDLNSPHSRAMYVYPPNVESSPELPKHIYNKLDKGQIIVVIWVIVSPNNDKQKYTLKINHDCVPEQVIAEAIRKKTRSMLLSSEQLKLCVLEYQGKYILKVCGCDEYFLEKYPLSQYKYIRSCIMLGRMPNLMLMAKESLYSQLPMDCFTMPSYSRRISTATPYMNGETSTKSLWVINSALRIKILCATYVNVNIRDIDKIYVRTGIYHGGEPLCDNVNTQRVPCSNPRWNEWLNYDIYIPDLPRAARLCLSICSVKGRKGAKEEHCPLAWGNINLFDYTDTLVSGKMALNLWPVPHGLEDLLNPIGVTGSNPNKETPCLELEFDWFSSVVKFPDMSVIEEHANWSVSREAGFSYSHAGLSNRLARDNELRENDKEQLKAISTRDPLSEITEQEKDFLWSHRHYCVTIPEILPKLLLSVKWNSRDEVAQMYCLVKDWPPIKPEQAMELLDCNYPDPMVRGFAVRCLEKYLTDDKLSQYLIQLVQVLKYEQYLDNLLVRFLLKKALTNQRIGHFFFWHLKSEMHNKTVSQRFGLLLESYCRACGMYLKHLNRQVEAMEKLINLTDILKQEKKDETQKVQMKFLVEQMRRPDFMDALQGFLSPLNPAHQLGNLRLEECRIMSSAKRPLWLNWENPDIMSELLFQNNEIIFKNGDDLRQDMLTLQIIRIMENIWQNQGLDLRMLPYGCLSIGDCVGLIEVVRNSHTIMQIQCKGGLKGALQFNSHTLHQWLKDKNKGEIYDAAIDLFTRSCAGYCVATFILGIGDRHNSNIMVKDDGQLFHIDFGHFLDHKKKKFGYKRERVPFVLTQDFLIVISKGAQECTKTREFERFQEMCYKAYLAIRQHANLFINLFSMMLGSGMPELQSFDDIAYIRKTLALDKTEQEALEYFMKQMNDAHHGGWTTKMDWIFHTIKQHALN

Compound | PI3KA_Act Ki
CC[C@]1(N2CCc3c(-c4cnc(N)nc4)nc(N4CCOCC4)nc32)CCN(C(=O)C(C)(C)N)C1.Cl [Example 285, 2-amino-1-{(3S)-3-[4-(2-aminopyrimidin-5-yl)-2-(morpholin-4-yl)-5,6-dihydro-7H-pyrrolo[2,3-d]pyrimidin-7-yl]-3-ethylpyrrolidin-1-yl}-2-methylpropan-1-one hydrochloride] | 0.089 nM
CC(C)[C@@H](N)C(=O)N1CC[C@@H](N2CCc3c(-c4cnc(N)nc4)nc(N4CCOCC4)nc32)C1.Cl [Example 286, (2R)-2-amino-1-{(3R)-3-[4-(2-aminopyrimidin-5-yl)-2-(morpholin-4-yl)-5,6-dihydro-7H-pyrrolo[2,3-d]pyrimidin-7-yl]pyrrolidin-1-yl}-3-methylbutan-1-one hydrochloride] | 5.810 nM
CC(C)[C@@H](N)C(=O)N1CC[C@H](N2CCc3c(-c4cnc(N)nc4)nc(N4CCOCC4)nc32)C1.Cl [Example 287, (2R)-2-amino-1-{(3S)-3-[4-(2-aminopyrimidin-5-yl)-2-(morpholin-4-yl)-5,6-dihydro-7H-pyrrolo[2,3-d]pyrimidin-7-yl]pyrrolidin-1-yl}-3-methylbutan-1-one hydrochloride] | 0.462 nM
CC(C)[C@H](N)C(=O)N1CC[C@](C)(N2CCc3c(-c4cnc(N)nc4)nc(N4CCOCC4)nc32)C1.Cl [Example 288, (2S)-2-amino-1-{(3S)-3-[4-(2-aminopyrimidin-5-yl)-2-(morpholin-4-yl)-5,6-dihydro-7H-pyrrolo[2,3-d]pyrimidin-7-yl]-3-methylpyrrolidin-1-yl}-3-methylbutan-1-one hydrochloride] | 0.141 nM
CC(C)(N)C(=O)N1CC[C@@](C)(N2CCc3c(-c4cnc(N)nc4)nc(N4CCOCC4)nc32)C1.Cl [Example 289, 2-amino-1-{(3R)-3-[4-(2-aminopyrimidin-5-yl)-2-(morpholin-4-yl)-5,6-dihydro-7H-pyrrolo[2,3-d]pyrimidin-7-yl]-3-methylpyrrolidin-1-yl}-2-methylpropan-1-one hydrochloride] | 0.075 nM
CCC(C)(N)C(=O)N1CC[C@](C)(N2CCc3c(-c4cnc(N)nc4)nc(N4CCOCC4)nc32)C1.Cl (stereo partly drawn) [Example 290, 2-amino-1-{(3S)-3-[4-(2-aminopyrimidin-5-yl)-2-(morpholin-4-yl)-5,6-dihydro-7H-pyrrolo[2,3-d]pyrimidin-7-yl]-3-methylpyrrolidin-1-yl}-2-methylbutan-1-one hydrochloride] | <0.018 nM
C[C@]1(N2CCc3c(-c4cnc(N)nc4)nc(N4CCOCC4)nc32)CCN(C(=O)[C@H](N)CF)C1.Cl [Example 292, (2S)-2-amino-1-{(3S)-3-[4-(2-aminopyrimidin-5-yl)-2-(morpholin-4-yl)-5,6-dihydro-7H-pyrrolo[2,3-d]pyrimidin-7-yl]-3-methylpyrrolidin-1-yl}-3-fluoropropan-1-one hydrochloride] | <0.018 nM
C[C@]1(N2CCc3c(-c4cnc(N)nc4)nc(N4CCOCC4)nc32)CCN(C(=O)[C@@H](N)CF)C1.Cl [Example 293, (2R)-2-amino-1-{(3S)-3-[4-(2-aminopyrimidin-5-yl)-2-(morpholin-4-yl)-5,6-dihydro-7H-pyrrolo[2,3-d]pyrimidin-7-yl]-3-methylpyrrolidin-1-yl}-3-fluoropropan-1-one hydrochloride] | 0.086 nM
CC(N)(CF)C(=O)N1CC[C@](C)(N2CCc3c(-c4cnc(N)nc4)nc(N4CCOCC4)nc32)C1.Cl (stereo partly drawn) [Example 294, 2-amino-1-{(3S)-3-[4-(2-aminopyrimidin-5-yl)-2-(morpholin-4-yl)-5,6-dihydro-7H-pyrrolo[2,3-d]pyrimidin-7-yl]-3-methylpyrrolidin-1-yl}-3-fluoro-2-methylpropan-1-one hydrochloride] | <0.018 nM
C[C@]1(N2CCc3c(-c4cnc(N)nc4)nc(N4CCOCC4)nc32)CCN(C(=O)[C@@H](N)C2CC2)C1.Cl [Example 296, (2S)-2-amino-1-{(3S)-3-[4-(2-aminopyrimidin-5-yl)-2-(morpholin-4-yl)-5,6-dihydro-7H-pyrrolo[2,3-d]pyrimidin-7-yl]-3-methylpyrrolidin-1-yl}-2-cyclopropylethanone hydrochloride] | <0.018 nM
C[C@]1(N2CCc3c(-c4cnc(N)nc4)nc(N4CCOCC4)nc32)CCN(C(=O)[C@H](N)C2CC2)C1.Cl [Example 297, (2R)-2-amino-1-{(3S)-3-[4-(2-aminopyrimidin-5-yl)-2-(morpholin-4-yl)-5,6-dihydro-7H-pyrrolo[2,3-d]pyrimidin-7-yl]-3-methylpyrrolidin-1-yl}-2-cyclopropylethanone hydrochloride] | 0.019 nM
CNCC(=O)N1CC[C@](C)(N2CCc3c(-c4cnc(N)nc4)nc(N4CCOCC4)nc32)C1 [Example 298, 1-{(3S)-3-[4-(2-aminopyrimidin-5-yl)-2-(morpholin-4-yl)-5,6-dihydro-7H-pyrrolo[2,3-d]pyrimidin-7-yl]-3-methylpyrrolidin-1-yl}-2-(methylamino)ethanone] | <0.018 nM
CN(C)CC(=O)N1CC[C@](C)(N2CCc3c(-c4cnc(N)nc4)nc(N4CCOCC4)nc32)C1 [Example 299, 1-{(3S)-3-[4-(2-aminopyrimidin-5-yl)-2-(morpholin-4-yl)-5,6-dihydro-7H-pyrrolo[2,3-d]pyrimidin-7-yl]-3-methylpyrrolidin-1-yl}-2-(dimethylamino) ethanone] | <0.018 nM
CN(C)CC(=O)N1CC[C@@](C)(N2CCc3c(-c4cnc(N)nc4)nc(N4CCOCC4)nc32)C1 [Example 300, 1-{(3R)-3-[4-(2-aminopyrimidin-5-yl)-2-(morpholin-4-yl)-5,6-dihydro-7H-pyrrolo[2,3-d]pyrimidin-7-yl]-3-methylpyrrolidin-1-yl}-2-(dimethylamino) ethanone] | 0.669 nM
C[C@H](C(=O)N1CC[C@](C)(N2CCc3c(-c4cnc(N)nc4)nc(N4CCOCC4)nc32)C1)N(C)C [Example 301, (2R)-1-{(3S)-3-[4-(2-aminopyrimidin-5-yl)-2-(morpholin-4-yl)-5,6-dihydro-7H-pyrrolo[2,3-d]pyrimidin-7-yl]-3-methylpyrrolidin-1-yl}-2-(dimethylamino) propan-1-one] | 0.073 nM
CC(C(=O)N1CC[C@](C)(N2CCc3c(-c4cnc(N)nc4)nc(N4CCOCC4)nc32)C1)N(C)C (stereo partly drawn) [Example 302, 1-{(3S)-3-[4-(2-aminopyrimidin-5-yl)-2-(morpholin-4-yl)-5,6-dihydro-7H-pyrrolo[2,3-d]pyrimidin-7-yl]-3-methylpyrrolidin-1-yl}-2-(dimethylamino) propan-1-one] | 0.038 nM
CNC(C)(C)C(=O)N1CC[C@](C)(N2CCc3c(-c4cnc(N)nc4)nc(N4CCOCC4)nc32)C1.Cl [Example 303, 1-{(3S)-3-[4-(2-aminopyrimidin-5-yl)-2-(morpholin-4-yl)-5,6-dihydro-7H-pyrrolo[2,3-d]pyrimidin-7-yl]-3-methylpyrrolidin-1-yl}-2-methyl-2-(methylamino) propan-1-one hydrochloride] | 0.025 nM
CN(C)C(C)(C)C(=O)N1CC[C@](C)(N2CCc3c(-c4cnc(N)nc4)nc(N4CCOCC4)nc32)C1 [Example 304, 1-{(3S)-3-[4-(2-aminopyrimidin-5-yl)-2-(morpholin-4-yl)-5,6-dihydro-7H-pyrrolo[2,3-d]pyrimidin-7-yl]-3-methylpyrrolidin-1-yl}-2-(dimethylamino)-2-methylpropan-1-one] | <0.018 nM
CC(C)(CN)C(=O)N1CC[C@](C)(N2CCc3c(-c4cnc(N)nc4)nc(N4CCOCC4)nc32)C1.Cl [Example 305, 3-amino-1-{(3S)-3-[4-(2-aminopyrimidin-5-yl)-2-(morpholin-4-yl)-5,6-dihydro-7H-pyrrolo[2,3-d]pyrimidin-7-yl]-3-methylpyrrolidin-1-yl}-2,2-dimethylpropan-1-one hydrochloride] | 0.036 nM
CNCC(C)(C)C(=O)N1CC[C@](C)(N2CCc3c(-c4cnc(N)nc4)nc(N4CCOCC4)nc32)C1.Cl [Example 306, 1-{(3S)-3-[4-(2-aminopyrimidin-5-yl)-2-(morpholin-4-yl)-5,6-dihydro-7H-pyrrolo[2,3-d]pyrimidin-7-yl]-3-methylpyrrolidin-1-yl}-2,2-dimethyl-3-(methylamino) propan-1-one hydrochloride] | <0.018 nM
C[C@]1(N2CCc3c(-c4cnc(N)nc4)nc(N4CCOCC4)nc32)CCN(C(=O)C(F)(F)CN)C1.Cl [Example 307, 3-amino-1-{(3S)-3-[4-(2-aminopyrimidin-5-yl)-2-(morpholin-4-yl)-5,6-dihydro-7H-pyrrolo[2,3-d]pyrimidin-7-yl]-3-methylpyrrolidin-1-yl}-2,2-difluoropropan-1-one hydrochloride] | <0.018 nM
C[C@@]1(N2CCc3c(-c4cnc(N)nc4)nc(N4CCOCC4)nc32)CCN(C(=O)CC(F)(F)F)C1 [Example 308, 1-{(3R)-3-[4-(2-aminopyrimidin-5-yl)-2-(morpholin-4-yl)-5,6-dihydro-7H-pyrrolo[2,3-d]pyrimidin-7-yl]-3-methylpyrrolidin-1-yl}-3,3,3-trifluoropropan-1-one] | 0.126 nM
C[C@]1(N2CCc3c(-c4cnc(N)nc4)nc(N4CCOCC4)nc32)CCN(C(=O)CC(F)(F)F)C1 [Example 309, 1-{(3S)-3-[4-(2-aminopyrimidin-5-yl)-2-(morpholin-4-yl)-5,6-dihydro-7H-pyrrolo[2,3-d]pyrimidin-7-yl]-3-methylpyrrolidin-1-yl}-3,3,3-trifluoropropan-1-one] | 0.056 nM
